What was measured:
HCT-116 = assay: Cytotoxicity against human HCT-116 cells assessed as reduction in cell viability incubated for 48 hrs by MTT assay; type: functional, cell-based; settings: HCT-116, 48 h
SNB-19 = assay: Cytotoxicity against human SNB-19 cells assessed as reduction in cell viability incubated for 48 hrs by MTT assay; type: functional, cell-based; settings: SNB-19, 48 h
MDA-MB-435 = assay: Cytotoxicity against human MDA-MB-435 cells assessed as reduction in cell viability incubated for 48 hrs by MTT assay; type: functional, cell-based; settings: MDA-MB-435, 48 h
A549 [1] = assay: Cytotoxicity against human A549 cells assessed as reduction in cell viability incubated for 48 hrs by MTT assay; type: functional, cell-based; settings: A549, 48 h
PC-3 = assay: Cytotoxicity against human PC-3 cells assessed as reduction in cell viability incubated for 48 hrs by MTT assay; type: functional, cell-based; settings: PC-3, 48 h
MDA-MB-231 = assay: Cytotoxicity against human MDA-MB-231 cells assessed as reduction in cell viability incubated for 48 hrs by MTT assay; type: functional, cell-based; settings: MDA-MB-231, 48 h
A549 [2] = assay: Induction of cell cycle arrest in human A549 cells assessed as accumulation of cells at G2/M phase at 2 uM incubated for 24 hrs by flow cytometric analysis (reference value: 17.2 %); type: functional
NCI-H1703 [3] = assay: Induction of cell cycle arrest in human NCI-H1703 cells assessed as accumulation of cells at S phase at 2 uM incubated for 24 hrs by flow cytometric analysis (reference value: 28.06 %); type: functional
A549 [4] = assay: Induction of cell cycle arrest in human A549 cells assessed as accumulation of cells at S phase at 2 uM incubated for 24 hrs by flow cytometric analysis (reference value: 31.31 %); type: functional
NCI-H1703 [5] = assay: Induction of cell cycle arrest in human NCI-H1703 cells assessed as accumulation of cells at G2/M phase at 2 uM incubated for 24 hrs by flow cytometric analysis (reference value: 29.88 %); type: functional
A549 [6] = assay: Induction of cell cycle arrest in human A549 cells assessed as accumulation of cells at G1/G0 phase at 2 uM incubated for 24 hrs by flow cytometric analysis (reference value: 51.49 %); type: functional
NCI-H1703 [7] = assay: Induction of cell cycle arrest in human NCI-H1703 cells assessed as accumulation of cells at G1/G0 phase at 2 uM incubated for 24 hrs by flow cytometric analysis (reference value: 42.06 %); type: functional

Structure (SMILES)	IC50 (HCT-116)	IC50 (SNB-19)	IC50 (MDA-MB-435)	IC50 (A549 [1])	IC50 (PC-3)	IC50 (MDA-MB-231)	Activity (A549 [2])	Activity (NCI-H1703 [3])	Activity (A549 [4])	Activity (NCI-H1703 [5])	Activity (A549 [6])	Activity (NCI-H1703 [7])
CC[C@H](C)C[C@@H](C)/C=C(\C)[C@@H]1O[C@H](c2c(O)c(-c3ccccc3O)cn(C)c2=O)CC[C@H]1C	7.57 µM	> 50 µM	6.95 µM	> 50 µM	18.6 µM	12.7 µM	–	–	–	–	–	–
CC[C@H](C)C[C@@H](C)/C=C(\C)[C@@H]1O[C@H](c2c(O)c(-c3ccc(O)cc3)cn(C)c2=O)CC[C@H]1C	7.74 µM	9.04 µM	9.41 µM	14.9 µM	43 µM	14.9 µM	–	–	–	–	–	–
CC[C@H](C)C[C@@H](C)/C=C(\C)[C@@H]1O[C@H](c2c(O)c(-c3ccc(O)cc3)cn(C)c2=O)CC=C1C	29.2 µM	40.4 µM	34.9 µM	48.9 µM	> 50 µM	43.1 µM	–	–	–	–	–	–
C/C=C/[C@@H]1Oc2c(-c3ccccc3)c[nH]c(=O)c2[C@@H]2[C@H]1CCC[C@H]2C	16.8 µM	13.4 µM	29.5 µM	> 50 µM	36.1 µM	> 50 µM	–	–	–	–	–	–
C/C=C/[C@@H]1Oc2c(-c3ccccc3)cn(O)c(=O)c2[C@@H]2[C@H]1CCC[C@H]2C	14.4 µM	20.3 µM	20.3 µM	32.7 µM	49.1 µM	20.1 µM	–	–	–	–	–	–
CC[C@H](C)C[C@@H](C)/C=C(\C)[C@@H]1O[C@H](c2c(O)c(-c3ccccc3)c[nH]c2=O)CC[C@H]1C	> 50 µM	> 50 µM	7.29 µM	3.89 µM	11.4 µM	5 µM	–	–	–	–	–	–
CC[C@H](C)C[C@@H](C)/C=C(\C)[C@@H]1O[C@H](c2c(O)c(-c3ccc(O)cc3)c[nH]c2=O)CC[C@H]1C	2.51 µM	> 50 µM	10 µM	3.46 µM	6.65 µM	4.4 µM	–	–	–	–	–	–
CC[C@H](C)C[C@@H](C)/C=C(\C)[C@@H]1O[C@H](c2c(O)c(-c3ccc(O)cc3)cn(C)c2=O)CC[C@]1(C)O	10.5 µM	> 50 µM	6.15 µM	11.1 µM	8.1 µM	8.49 µM	–	–	–	–	–	–
CC[C@H](C)C[C@@H](C)/C=C(\C)[C@H]1O[C@@H](c2c(O)c(-c3ccccc3)c[nH]c2=O)CC=C1C	1.76 µM	6.76 µM	9.02 µM	3.81 µM	2.18 µM	5.28 µM	–	–	–	–	–	–
CC(=O)c1c(C)c2cnc(Nc3ccc(N4CCNCC4)cn3)nc2n(C2CCCC2)c1=O [PALBOCICLIB]	–	–	–	–	–	–	4.7%	6.88%	5.87%	20.91%	89.43%	72.21%
CC[C@H](C)C[C@@H](C)/C=C(\C)[C@@H]1O[C@H](c2c(O)c(-c3ccc(O)cc3)cn(C)c2=O)CC[C@H]1CO	10.5 µM	> 50 µM	2.3 µM	8.41 µM	> 50 µM	> 50 µM	–	–	–	–	–	–
CC[C@H](C)C[C@@H](C)/C=C(\C)[C@@H]1O[C@H](c2c(O)c(-c3ccccc3)cn(C)c2=O)CC[C@H]1C	2.45 µM	5.76 µM	24.6 µM	9.51 µM	16.3 µM	7.84 µM	–	–	–	–	–	–

— ChEMBL document CHEMBL5500339, “4-Hydroxy-2-pyridone derivatives with antitumor activity produced by mangrove endophytic fungus Talaromyces sp. CY-3” (Eur J Med Chem, 2024)
